Values quoted from earlier work in patent publication US20200330378A1, “TASTE-ENHANCED C[…] EMULSION SYRUP COMPOSITIONS” (ICDPHARMA LTD., priority 2018, published 2020).

Key:
[1] = patients with insomnia; 160 mg dose of CBD compared to placebo
[2] = 75-300 mg of CBD taken daily
[3] = subjects given THC
[4] = tested on: human lung tumors implanted into rats and mice

SMILES | length of sleep [1] | symptoms of REM sleep behavior disorder [2] | amount of time to fall asleep [3] | reduction in tumor mass and volume ([4]; human lung tumors implanted into rats and mice) | reduction of cancerous lesions in the lungs ([4]; rats and mice)
C=C(C)[C@@H]1CCC(C)=C[C@H]1c1c(O)cc(CCCCC)cc1O [CBD, cannabidiol] | increased | reduce or eliminate entirely | – | – | –
CCCCCc1cc(O)c2c(c1)OC(C)(C)[C@@H]1CCC(C)=C[C@@H]21 [THC, tetrahydrocannabinol] | – | – | significant decrease | ≤ 50% | around 60%
